Assay results taken from US20200368312A1 (priority 2017, published 2020).
≈ marks a conversion by molar mass, not a printed value. Like-named read-outs stand apart in the source and are kept apart here.

Legend:
P. anaerobius = assay: Broth microdilution MIC, P. anaerobius (Table 7); assay type: cell-based; details: P. anaerobius MMX 1208 ATCC 27337
P. micros = assay: Broth microdilution MIC, P. micros (Table 7); assay type: cell-based; details: P. micros MMX 3546
Clostridium difficile = assay: Broth microdilution MIC, C. difficile, anaerobic, supplemented Brucella Broth (Example 11, Table 7); assay type: cell-based
S. hominis (CoNS) = assay: Broth microdilution MIC, S. hominis (CoNS) (Table 7); assay type: cell-based; details: S. hominis (CoNS) MMX 667 ATCC 27844
S. lugdenensis (CoNS) = assay: Broth microdilution MIC, S. lugdenensis (CoNS) (Table 7); assay type: cell-based; details: S. lugdenensis (CoNS) MMX 8724
S. epidermidis (CoNS) = assay: Broth microdilution MIC, S. epidermidis (CoNS) (Table 7); assay type: cell-based
Enterococci = assay type: cell-based
[1] = test system: MRSA isolate ATCC BAA-1556; assay: MIC, CLSI-guided broth susceptibility testing (Example 10); assay type: cell-based, Staphylococcus aureus
Procedure: (§1) MIC Testing: Glycopeptide compounds were dissolved in 100% DMSO. In vitro activities were determined using CLSI-guided broth susceptibility testing to measure drug minimum inhibitory concentrations (MICs) of the compounds against the quality control strain ATCC 29213 (MSSA) and the MRSA isolate ATCC BAA-1556. Glycopeptides are defined as compounds of Formula (I), and their respective R^1, R^2, R^3 and R^4 groups. X is —O— for each compound in Table 2.

[2] = test system: quality control strain ATCC 29213 (MSSA); assay: as above; assay type: cell-based, Staphylococcus aureus
Procedure: as §1

S. haemolyticus (CoNS) = assay: Broth microdilution MIC, S. haemolyticus (CoNS) (Table 7); assay type: cell-based; details: S. haemolyticus (CoNS) MMX 529 ATCC 29970
C. perfringens = assay type: cell-based; details: C. perfringens MMX 8351 ATCC 13124
Staphylococcus aureus = assay: microbe, parasite or virus in culture; assay type: cell-based
P. acnes = assay: Broth microdilution MIC, P. acnes (Table 7); assay type: cell-based
Streptococci = assay: Broth microdilution MIC, Streptococci (Example 11, Table 7); assay type: cell-based

For `CCCCCCCCCCNCCN[C@@]1(C)C[C@H](O[C@H]2[C@H](Oc3c4cc5cc3Oc3ccc(cc3Cl)[C@@H](O)[C@@H](NC(=O)[C@@H](CC(C)C)NC)C(=O)N[C@@H](CC(N)=O)C(=O)N[C@H]5C(=O)N[C@H]3C(=O)N[C@H](C(=O)N[C@H](C(=O)O)c5cc(O)c(CNCP(=O)(O)O)c(O)c5-c5cc3ccc5O)[C@H](O)c3ccc(c(Cl)c3)O4)O[C@H](CO)[C@@H](O)[C@@H]2O)O[C@@H](C)[C@H]1O` [Telavancin], which MIC (P. anaerobius) is on record?
Its MIC is 0.03 µg/mL (≈ 0.0171 µM).

What about the MIC (P. micros) of the same compound?
Its MIC is 0.06 µg/mL (≈ 0.0342 µM).

What about the MIC (Clostridium difficile; C. difficile MMX 4381 ATCC 700057, toxinAB-negative) of the same compound?
The MIC was 0.12 µg/mL (≈ 0.0684 µM).

What about the MIC (Clostridium difficile; C. difficile MMX 4994 ATCC BAA-1805, ribotype 027) of the same compound?
Its MIC is 0.12 µg/mL (≈ 0.0684 µM).

What about the MIC (Clostridium difficile; C. difficile MMX 5668 ATCC BAA-1870, NAP1/027) of the same compound?
Its MIC is 0.12 µg/mL (≈ 0.0684 µM).

And the MIC (S. hominis (CoNS))?
Its MIC is 0.06 µg/mL (≈ 0.0342 µM).

And the MIC (S. lugdenensis (CoNS))?
Its MIC is 0.06 µg/mL (≈ 0.0342 µM).

What about the MIC (S. epidermidis (CoNS); S. epidermidis (CoNS) MMX 762, MRSE) of the same compound?
The MIC was 0.12 µg/mL (≈ 0.0684 µM).

And the MIC (S. epidermidis (CoNS); S. epidermidis (CoNS) MMX 5145, MRSE)?
Its MIC is 0.03 µg/mL (≈ 0.0171 µM).

And the MIC (Enterococci; E. faecalis MMX 101 ATCC 29212, VSE)?
Its MIC is 0.12 µg/mL (≈ 0.0684 µM).

And the MIC (Enterococci; E. faecalis MMX 1086, VanA VRE)?
The MIC was 1 µg/mL (≈ 0.57 µM).

And the MIC (Enterococci; E. faecalis MMX 4176)?
Its MIC is 0.25 µg/mL (≈ 0.142 µM).

What about the MIC (Enterococci; E. faecium MMX 173, VanB VRE) of the same compound?
Its MIC is 0.06 µg/mL (≈ 0.0342 µM).

And the MIC (Enterococci; E. faecium MMX 851, VanA VRE)?
Its MIC is 2 µg/mL (≈ 1.14 µM).

What about the MIC (Enterococci; E. faecium MMX 4204) of the same compound?
Its MIC is 0.06 µg/mL (≈ 0.0342 µM).

And the “activity against vancomycin-resistant enterococci (VRE)” value (Enterococci; VRE, MIC values elevated relative to vancomycin-susceptible enterococci (VSE))?
Its value is “potent activity”.

And the “MIC Values MRSA 1556” value [1]?
The value was 0.063 µg/mL (≈ 0.0359 µM).

What about the “MIC Values MSSA 29213” value [2] of the same compound?
Its value is 0.063 µg/mL (≈ 0.0359 µM).

What about the MIC (S. haemolyticus (CoNS)) of the same compound?
Its MIC is 0.06 µg/mL (≈ 0.0342 µM).

And the MIC (C. perfringens)?
The MIC was 0.015 µg/mL (≈ 0.00854 µM).

And the “RV40 activity as compared to Comparator” value (Staphylococcus aureus; MRSA strains (Table 5), […])?
The value was 6 ×.

And the MIC (Staphylococcus aureus; S. aureus MMX 100 ATCC 29213, MSSA (quality control))?
Its MIC is 0.06 µg/mL (≈ 0.0342 µM).

What about the MIC (Staphylococcus aureus; S. aureus MMX 1723, Mu50, VISA) of the same compound?
The MIC was 0.5 µg/mL (≈ 0.285 µM).

And the MIC (Staphylococcus aureus; S. aureus MMX 2010, MRSA)?
Its MIC is 0.06 µg/mL (≈ 0.0342 µM).

And the MIC (Staphylococcus aureus; S. aureus MMX 2011 ATCC BAA-1756, MRSA)?
Its MIC is 0.06 µg/mL (≈ 0.0342 µM).

And the MIC (Staphylococcus aureus; S. aureus MMX 2124, VISA, DaptoNS)?
Its MIC is 0.5 µg/mL (≈ 0.285 µM).

What about the MIC (Staphylococcus aureus; S. aureus MMX 2490, MSSA) of the same compound?
The MIC was 0.12 µg/mL (≈ 0.0684 µM).

And the MIC (Staphylococcus aureus; S. aureus MMX 3982, MRSA)?
The MIC was 0.06 µg/mL (≈ 0.0342 µM).

And the MIC (Staphylococcus aureus; S. aureus MMX 4658, VISA)?
Its MIC is 0.12 µg/mL (≈ 0.0684 µM).

And the MIC (Staphylococcus aureus; S. aureus MMX 4660, VISA)?
Its MIC is 0.12 µg/mL (≈ 0.0684 µM).

What about the MIC (Staphylococcus aureus; S. aureus MMX 4665, hVISA) of the same compound?
The MIC was 0.25 µg/mL (≈ 0.142 µM).

What about the MIC (Staphylococcus aureus; S. aureus MMX 4675 ATCC BAA-1556, MRSA) of the same compound?
Its MIC is 0.06 µg/mL (≈ 0.0342 µM).

And the MIC (Staphylococcus aureus; S. aureus MMX 5717 ATCC 33591, MRSA)?
The MIC was 0.06 µg/mL (≈ 0.0342 µM).

And the MIC (Staphylococcus aureus; S. aureus MMX 5985, MRSA)?
Its MIC is 0.06 µg/mL (≈ 0.0342 µM).

What about the MIC (Staphylococcus aureus; S. aureus MMX 5989, Mu3, hVISA) of the same compound?
Its MIC is 0.12 µg/mL (≈ 0.0684 µM).

And the MIC (Staphylococcus aureus; S. aureus MMX 5999, MRSA)?
The MIC was 0.06 µg/mL (≈ 0.0342 µM).

What about the MIC (Staphylococcus aureus; S. aureus MMX 7899, MRSA) of the same compound?
Its MIC is 0.06 µg/mL (≈ 0.0342 µM).

What about the MIC (Staphylococcus aureus; S. aureus MMX 7900, MRSA) of the same compound?
The MIC was 0.06 µg/mL (≈ 0.0342 µM).

What about the MIC (Staphylococcus aureus; S. aureus MMX 7901, MRSA) of the same compound?
Its MIC is 0.03 µg/mL (≈ 0.0171 µM).

What about the MIC (Staphylococcus aureus; S. aureus MMX 7902, MRSA) of the same compound?
Its MIC is 0.06 µg/mL (≈ 0.0342 µM).

And the MIC (Staphylococcus aureus; S. aureus MMX 7903, MRSA)?
The MIC was 0.06 µg/mL (≈ 0.0342 µM).

What about the MIC (Staphylococcus aureus; S. aureus MMX 7907, MSSA) of the same compound?
The MIC was 0.06 µg/mL (≈ 0.0342 µM).

What about the MIC (Staphylococcus aureus; S. aureus MMX 7908, MSSA) of the same compound?
The MIC was 0.12 µg/mL (≈ 0.0684 µM).

And the MIC (P. acnes; P. acnes MMX 7942 ATCC 6919)?
Its MIC is 0.03 µg/mL (≈ 0.0171 µM).

And the MIC (P. acnes; P. acnes MMX 7946 ATCC 11827)?
Its MIC is 0.015 µg/mL (≈ 0.00854 µM).

And the MIC (Streptococci; S. agalactiae MMX 427 ATCC 13813)?
The MIC was 0.06 µg/mL (≈ 0.0342 µM).

What about the MIC (Streptococci; S. agalactiae MMX 4088) of the same compound?
The MIC was 0.06 µg/mL (≈ 0.0342 µM).

And the MIC (Streptococci; S. agalactiae MMX 4115, erm^R)?
Its MIC is 0.06 µg/mL (≈ 0.0342 µM).

What about the MIC (Streptococci; S. anginosus (AGS) MMX 1201 ATCC 33397) of the same compound?
The MIC was 0.06 µg/mL (≈ 0.0342 µM).

What about the MIC (Streptococci; S. constellatus (AGS) MMX 5677) of the same compound?
The MIC was 0.03 µg/mL (≈ 0.0171 µM).

And the MIC (Streptococci; S. dysgalactiae MMX 5121)?
The MIC was 0.12 µg/mL (≈ 0.0684 µM).

What about the MIC (Streptococci; S. dysgalactiae MMX 5123) of the same compound?
Its MIC is 0.25 µg/mL (≈ 0.142 µM).

What about the MIC (Streptococci; S. dysgalactiae MMX 5124) of the same compound?
Its MIC is 0.03 µg/mL (≈ 0.0171 µM).

What about the MIC (Streptococci; S. mitis (MGS) MMX 1205 ATCC 49456) of the same compound?
Its MIC is 0.06 µg/mL (≈ 0.0342 µM).

What about the MIC (Streptococci; S. oralis (MGS) MMX 5821) of the same compound?
The MIC was 0.06 µg/mL (≈ 0.0342 µM).

What about the MIC (Streptococci; S. pneumoniae MMX 432, PRSP) of the same compound?
The MIC was 0.03 µg/mL (≈ 0.0171 µM).

What about the MIC (Streptococci; S. pneumoniae MMX 747) of the same compound?
Its MIC is 0.015 µg/mL (≈ 0.00854 µM).

What about the MIC (Streptococci; S. pneumoniae MMX 1195 ATCC 49619, PISP) of the same compound?
The MIC was 0.03 µg/mL (≈ 0.0171 µM).

What about the MIC (Streptococci; S. pyogenes MMX 404 ATCC 19615) of the same compound?
Its MIC is 0.06 µg/mL (≈ 0.0342 µM).

And the MIC (Streptococci; S. pyogenes MMX 946, ermR)?
Its MIC is 0.06 µg/mL (≈ 0.0342 µM).

And the MIC (Streptococci; S. pyogenes MMX 8778)?
Its MIC is 0.06 µg/mL (≈ 0.0342 µM).
